Test results published in patent US12091393B2, “Small molecule vaccine adjuvant for enhancing or prolonging immune response” (The Regents of the University of California, priority 2018, dated 2024).
Entries after “also recorded” stand apart in the source; their conditions may differ. Where two headings read alike, the source gives them in different places.

What was measured:
[1] = system: NF-κB; experiment: Measurement of NF-κB activation using THP1-Blue NF-κB cells (SEAP); assay type: cell-based; conditions: 20 h, two point normalized, compound 1 as 200%
[2] = Reactogenicity (FIG. 21)
[3] = system: JNK, P38 and Erk1/2; experiment: MAPK activation in THP-1 cells; assay type: cell-based; conditions: #42 alone
[4] = system: BMDCs; experiment: Gene expression in BMDCs; assay type: cell-based
[5] = system: THP-1 cells; experiment: RNA seq in THP-1 cells; assay type: cell-based
[6] = system: NF-κB; experiment: cell-based NF-κB FRET assay
Excerpt: Site A was assigned the 4-substituent of thiazole ring, site B was the thiazole ring itself, site C was the central amide bond in the structure, site D was the benzene ring bearing 1,4-carboxyl and sulfamoyl group, site E was the sulfonamide functional group and site F was the amide substituent on the sulfamoyl group.

[7] = system: NF-kB; experiment: NF-kB phosphorylation and nuclear localization in THP-1 cells (ICC and WB); assay type: cell-based
[8] = system: BMDCs; experiment: Cytotoxicity / cell viability of BMDCs; assay type: cell-based
[9] = system: BMDCs; experiment: Cytokine production in BMDCs; assay type: cell-based; conditions: for cytokine production (mIL-12, mIL-6, mTNFalpha) induced by Dectin1: with Dectin1 (FIGS. 4A-4C)
[10] = system: THP-1 cells; experiment: Co-stimulatory marker expression in THP-1 cells; assay type: cell-based
[11] = system: THP-1 cells; experiment: Cell viability assay (MTT); assay type: cell-based; conditions: compound 5 μM alone, 18 h, normalized to DMSO as 100%
Method in brief: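 THP-1 cells in RPMI/10% FBS got compound at a final 5 μM (0.05% DMSO) for 18 h. MTT (0.5 mg/mL) was then added for 4 to 6 h, followed by SDS/HCl lysis overnight. Absorbance was read at 570 nm against 650 nm reference.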

[12] = system: BMDCs; experiment: Co-stimulatory marker expression in BMDCs; assay type: cell-based; conditions: for Co-stimulatory markers: CD40 and CD86 induce by LPS or MPLA: BMDCs

## Cc1ccc(C)c(-c2csc(NC(=O)c3ccc(S(=O)(=O)N4CCCCC4)cc3)n2)c1 [Compound 1, N-(4-(2,5-dimethylphenyl)thiazol-2-yl)-4-(piperidin-1-ylsulfonyl)benzamide]
[1]; compound 5 μM + LPS, LPS (10 ng/mL) as 100%, read-out: NF-κB SEAP Compound + LPS % Activation
  activity at 5 µM: 200%
[1]; compound 5 μM alone, LPS or DMSO as 100%, read-out: NF-κB SEAP Compound alone % Activation
  activity at 5 µM: 200%
[2]
  reactogenicity: not reactogenic
[3]; listed as 42
  MAPK activation: phosphorylation of JNK, P38 and Erk1/2: induced
[3]; listed as #42
  MAPK activation: phosphorylation of JNK, P38 and Erk1/2: phosphorylation of JNK, P38 and Erk1/2
[4]; BMDCs
  Gene expression: CD40, IL-12. CXCL5 expression: Enhancement of CD40, IL-12.
[4]; by 10 hours after exposure, BDMCs, LPS and compound 42 (FIG. 7)
  CD40, CXCL10 and IL-12 gene expression kinetics: upregulated
[5]
  RNA seq: Induction of CSF-1 and LIF
[6]; compound + LPS, two point normalized, compound 1 as 200%, LPS (10 ng/mL) as 100%
  NF-κB FRET Compound + LPS % Activation: 200.00%
[6]; in presence of LPS, 12 h incubation
  enhancement of NF-κB activity by LPS at 12 h (confirmatory kinetic screening): most potent
[7]; LPS + compound 42
  phosphorylation of NFkB, combination of LPS and compound: synergistic
[7]; THP-1 cells, with LPS, listed as #42
  NF-kB phosphorylation and nuclear localization induced by LPS (ICC and WB): prolonged; also recorded: Prolongation of NF-kB
[7]; compound 42 alone (FIGS. 9A-9C)
  phosphorylation of NF-kB by compound alone: induced and sustained
[8]
  Cytotoxicity: Enhancement of cell viability
[9]; listed as 42
  cytokine production (mIL-12, mIL-6, mTNFalpha) induced by Dectin1: not enhanced; also recorded: not by Dectin1
[9]; listed as #42
  cytokine production (mIL-12, mIL-6, mTNFalpha) induced by Dectin1: not by Dectin1
[9]; with a TLR ligand (FIGS. 3-4)
  cytokine production induced by TLR ligands: enhanced
[10]
  Co-stimulatory markers: CD40 and CD86 induce by LPS: Enhancement of CD40 and CD86
[11]
  MTT Compound alone % Viability: 102.81%
[12]; BDMCs, LPS (FIGS. 5A-5G)
  co-stimulatory molecule expression induced by LPS: enhances
[12]; BDMCs, MPLA (FIGS. 6A-6F)
  co-stimulatory molecule expression induced by MPLA: enhances
[12]; listed as 42
  Co-stimulatory markers: CD40 and CD86 induce by LPS or MPLA: enhanced
[12]; listed as #42
  Co-stimulatory markers: CD40 and CD86 induce by LPS or MPLA: enhanced; also recorded: Enhancement of CD40 and CD86
